Tests used:
Format in all cases: in vivo
[1] = tested on: Aedes aegypti 3rd-4th instar larvae; test: Efficacy and residual activity of photolarvicidal formulations; conditions: for % mortality by incubation time: 12 h irradiation
Method: To assess the effect of different C14 loading concentrations on the photolarvicidal activity of the C14-PFP complexes, two photolarvicidal formulates were prepared. The formulates, named C14 PF-5 and C14 PF-50, were obtained by incubating overnight at room temperature under gentle shaking 25 mg of PFP in 500 ml of 5 μM and 50 μM aqueous solutions of C14, respectively. The solutions were filtered using Whatman qualitative filter papers (Whatman International Ltd., UK) and the solid residues, consisting in the C14-PFP complexes, were washed with 10 ml distilled water, oven-dried at 37° C. for 4 hours and stored at room temperature until use. To quantify the amount of bound C14, samples of the two C14-PFP formulates were dissolved in 3 ml of 2% SDS for 2 h under gentle magnetic stirring. The extracted porphyrin was then quantified by spectrophotometric analysis as described above.
(§1) All the experiments were carried out in a climatic chamber at 28±2° C. with a regulated photoperiod of 12 hours. Transparent plastic trays, containing 500 ml C14 solutions or spring water were employed. Typically, 5±1 days old, 3rd-early 4th instar Aedes aegypti larvae were used. All the experiments were replicated three times.
Five series of trays were prepared, namely 0.3 μM and 5 μM C14 porphyrin solutions containing 6 mg PFP (wherein PFP means powdered food pellet (PFP) with final particle diameter of 5-500 μm diameter obtained by crushing a standard food pellet for laboratory rodents, namely 4RF18 GLP (Mucedola Srl, Italy) using an electric blender and then sieving at mesh diameter 500 μm); spring water containing 6 mg C14 PF-5 or C14 PF-50 formulate (wherein C14 PF-5 and C14 PF-50, were obtained by incubating overnight at room temperature under gentle shaking 25 mg of PFP in 500 ml of 5 μM and 50 μM aqueous solutions of C14, respectively) and spring water containing 6 mg PFP as a control. Each series was arranged into three groups, which were incubated at a 12 hour photoperiod for 48 hours, one, or two weeks, respectively. At the end of the incubation periods, batches of 100 larvae, having fasted for 24 hours, were introduced into the trays, at 8 pm (beginning of the 12 h-long dark period in the climatic chamber). Larval mortality was evaluated after 12 hours (next day at 8.00 pm) of irradiation.

[2] = tested on: An. stephensi; test: Laboratory-scale tray larvicide test; conditions: carrier mouse food; 6 mg per tray; loading concentration 0.5 μM; fluorescent lamp
Method: Laboratory strains of Anopheles stephensi, M and S (Kisumu), chromosomal forms of An. gambiae, An. arabiensis and Aedes aegypti, as well as field-collected Anopheles spp. and Aedes spp. larvae were used. Laboratory mosquitoes were maintained at 28-30° C., >90% RH and a photoperiod of 12 h. Light intensity ranged between 0.5 mW/cm^2 (fluorescent lamp) and 185 mW/cm^2 (sunlight).
C12 or C14 porphyrin solutions at 5-100 μM concentrations were pre-incubated at room temperature in the darkness with 15-60 mg of carrier (either Eudragit or ground mouse food or cat food) for 4-12 hours under gentle shaking. After incubation the solutions were filtered, and the loaded carrier was dried at room temperature or in an oven (45° C.).
One litre capacity, transparent plastic trays containing wells with each 500 ml water and 6-60 mg of the composition of the present invention were prepared. Batches of 60-100 L2, L3 or L4 larvae were introduced into the trays after sunset (or artificial light off). Larval mortality was evaluated the next day starting from 8.00 am, and the time required to reach at least 90% mortality was recorded. Larvae not moving or not showing an escaping response at probing were defined as dead or dying, and counted together (Tables 2 and 3). Pupae occasionally formed throughout the irradiation time were discarded and excluded from the evaluation. An equal number of batches of larvae prepared in the same way were kept in continuous darkness and mortality was evaluated similarly, to assess toxicity in the dark.
Light intensity range: 0.5-185 mW/cm^2.

[3] = tested on: 3rd-4th instar Ae. aegypti larvae; test: Larvicidal efficacy of C14 porphyrin (LC50); conditions: 6 mg PFP
Method: Irradiation of mosquito larvae were performed by employing full spectrum visible light (400-800 nm) at a fluence rate of 1.0 to 4.0 mW/cm^2 using low-pressure mercury discharge fluorescent tubes TL-D Standard Colours (TL-D 58W/33-640 1SL, PHILIPS, EC). The intensity of the incident radiation was measured by an ILT1400A radiometer/photometer, equipped with a SED623/HNK15 multi-junction thermopile detector (International Light Technologies Inc., MA, USA).
as §1
Mortality data were analyzed by ANOVA and LSD post-hoc tests using SPSS v. 11.0 (SPSS Inc.). LC50 values and relevant statistics were obtained by nonlinear regression of mortality data, using OriginPro v. 7.5 (OriginLab Corp.).
Trays containing C14 porphyrin solutions at 7 increasing concentrations (range 0.03-4.3 μM), or spring water as a control, were provided with 6 mg of PFP each (wherein PFP means powdered food pellet (PFP) with final particle diameter of 5-500 μm diameter obtained by crushing a standard food pellet for laboratory rodents, namely 4RF18 GLP (Mucedola Srl, Italy) using an electric blender and then sieving at mesh diameter 500 μm) and then incubated in the dark for 48 hours. Batches of 100 larvae, fasted for the previous 24 hours, were introduced into the trays at 8.00 pm (beginning of the 12 hour-long dark period in the climatic chamber). Larval mortality was evaluated on the next day at 9 am (after 1 hour irradiation), 2 pm (6 hours irradiation) and 8 pm (12 hours irradiation). An additional mortality evaluation was performed on the following day at 8.00 am, after a further overnight incubation. Larvae not moving or not showing a normally vigorous escaping response at probing were defined as dead or dying, respectively, and counted together. Pupae occasionally formed during the experiment, which never exceeded 10% of the total number of larvae, were discarded and excluded from the evaluation.
C14 solutions were incubated with 6 mg PFP at 28±2° C. in the dark for 48 hours. Larvae (3rd-4th instar, n=100, 3 replicates) were introduced 12 hours before the start of the irradiation (fluence rate: 1.0-4.0 mW/cm^2).

With `CCCCCCCCCCCCCC[n+]1ccc(-c2c3nc(c(-c4cc[n+](C)cc4)c4ccc([nH]4)c(-c4cc[n+](C)cc4)c4nc(c(-c5cc[n+](C)cc5)c5ccc2[nH]5)C=C4)C=C3)cc1.Cc1ccc(S(=O)(=O)[O-])cc1.Cc1ccc(S(=O)(=O)[O-])cc1.Cc1ccc(S(=O)(=O)[O-])cc1.Cc1ccc(S(=O)(=O)[O-])cc1` [C14, meso-tri(N-methyl-pyridyl), mono(N-tetradecyl-pyridyl)porphine] the “% mortality by incubation time” value ([1]; 0.3 μM C14 solution with 6 mg untreated larval food, trays incubated 1 week) was 100%, the “% mortality by incubation time” value ([1]; 0.3 μM C14 solution with 6 mg untreated larval food, trays incubated 2 weeks) was 0% and the “% mortality by incubation time” value ([1]; 0.3 μM C14 solution with 6 mg untreated larval food, trays incubated 48 hours) was 100%. The residual activity ([1]; 0.3 μM solutions in water containing 6 mg untreated PFP) was 1 week, the “% mortality by incubation time” value ([1]; 5 μM C14 solution with 6 mg untreated larval food, trays incubated 1 week) was 100% and the “% mortality by incubation time” value ([1]; 5 μM C14 solution with 6 mg untreated larval food, trays incubated 2 weeks) was 100%. For the same compound, the “% mortality by incubation time” value ([1]; 5 μM C14 solution with 6 mg untreated larval food, trays incubated 48 hours) was 100%, the residual activity ([1]; 5 μM solutions in water containing 6 mg untreated PFP) was “two weeks” and the “Time to reach ≧90% mortality” value [2] was 1 h. It also gave an LC50 ([3]; 12 light + 12 dark hours) of 110 nM, an LC50 ([3]; 1 hour of irradiation, 1.0-4.0 mW/cm^2) of 460 nM and an LC50 ([3]; 6 hours of irradiation, 1.0-4.0 mW/cm^2) of 250 nM. The LC50 ([3]; 12 hours of irradiation, 1.0-4.0 mW/cm^2) was 220 nM.

Reference: patent publication US20130296370A1, “COMPOSITION COMPRISING A PHOTOACTIVATABLE LARVICIDE” (UNIVERSITA DEGLI STUDI DI PADOVA, priority 2010, published 2013)
